{"source": "patent US6355799B1", "about": "“Substituted benzene compounds, process for their preparation, and herbicidal and defoliant compositions containing them” (ISK Americas Incorporated, priority 1997, dated 2002)", "format_in_all_cases": "in vivo", "key": {"[1]": {"system": "upland rice (Oryza sp., var. Tebonnet, RICE)", "test": "Pre-emerge test, crop safety", "details": "rating scale 0-100, 14 days after application", "procedure,_shortened": "(§1)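 Plants grown in 10 cm pots of sandy loam mix received acetone-dissolved compounds through a moving flat-fan nozzle. Doses ranged from 15 to 1000 g ai/ha. Pre-emerge pots were seeded one day earlier, post-emerge pots 8–21 days earlier. Fourteen days on, each pot was graded 0–100 for damage.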"}, "[2]": {"system": "field corn (Zea mays L., var. Dekalb 535, CORN)", "test": "Pre-emerge test, crop safety", "details": "rating scale 0-100, 14 days after application", "procedure,_shortened": "as §1"}, "[3]": {"system": "upland rice (Oryza sp., var. Tebonnet, RICE)", "test": "Post-emerge test, crop safety", "details": "rating scale 0-100 (0 no damage, 100 complete death), 14 days after application", "procedure,_shortened": "(§2)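 Compounds in acetone were track-sprayed at 15-1000 g ai/ha (187 l/ha) on sandy loam pots: pre-emerge one day after seeding, post-emerge at 2-3 leaf stage with 0.25% v/v non-ionic surfactant. Phytotoxicity was rated 14 days later on a 0 (no damage) to 100 (complete death) scale.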"}, "[4]": {"system": "field corn (Zea mays L., var. Dekalb 535, CORN)", "test": "Post-emerge test, crop safety", "details": "rating scale 0-100 (0 no damage, 100 complete death), 14 days after application", "procedure,_shortened": "as §2"}, "[5]": {"system": "barnyardgrass (Echinochloa crus-galli, ECHCG)", "test": "Pre-emerge test, greenhouse herbicide activity screening", "details": "rating scale 0-100, 14 days after application", "procedure,_shortened": "as §2"}, "[6]": {"system": "sicklepod (Cassia obtusifolia, CASOB)", "test": "Pre-emerge test, greenhouse herbicide activity screening", "details": "rating scale 0-100, 14 days after application", "procedure,_shortened": "as §2"}, "[7]": {"system": "ivyleaf morningglory (Ipomoea hederacea, IPOHE)", "test": "Pre-emerge test, greenhouse herbicide activity screening", "details": "rating scale 0-100, 14 days after application", "procedure,_shortened": "as §2"}, "[8]": {"system": "johnsongrass (Sorghum halepense, SORHA)", "test": "Pre-emerge test, greenhouse herbicide activity screening", "details": "rating scale 0-100, 14 days after application", "procedure,_shortened": "as §2"}, "[9]": {"system": "large crabgrass (Digitaria sanguinalis, DIGSA)", "test": "Pre-emerge test, greenhouse herbicide activity screening", "details": "rating scale 0-100, 14 days after application", "procedure,_shortened": "as §2"}, "[10]": {"system": "lambsquarters (Chenopodium album, CHEAL)", "test": "Pre-emerge test, greenhouse herbicide activity screening", "details": "rating scale 0-100, 14 days after application", "procedure,_shortened": "as §2"}, "[11]": {"system": "green foxtail (Setaria viridis, SETVI)", "test": "Pre-emerge test, greenhouse herbicide activity screening", "details": "rating scale 0-100, 14 days after application", "procedure,_shortened": "as §2"}, "[12]": {"system": "velvetleaf (Abutilon theophrasti, ABUTH)", "test": "Pre-emerge test, greenhouse herbicide activity screening", "details": "rating scale 0-100, 14 days after application", "procedure,_shortened": "as §2"}, "[13]": {"system": "redroot pigweed (Amaranthus retroflexus, AMARE)", "test": "Pre-emerge test, greenhouse herbicide activity screening", "details": "rating scale 0-100, 14 days after application", "procedure,_shortened": "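Visual ratings on a 0-100 scale (0 no damage, 100 all plants dead) were taken at 14 days after treatment. Rates of 15-1000 g ai/ha in acetone, 187 l/ha, were sprayed onto soil one day after planting (pre-emerge) or onto 2-3 leaf plants with 0.25% v/v surfactant (post-emerge).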"}, "[14]": {"system": "barnyardgrass (Echinochloa crus-galli, ECHCG)", "test": "Post-emerge test, greenhouse herbicide activity screening", "details": "rating scale 0-100 (0 no damage, 100 complete death), 14 days after application", "procedure,_shortened": "(§3)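 Each test used a mechanized track sprayer delivering 187 l/ha of acetone solution at 15–1000 g ai/ha. Post-emerge foliage at 2–3 leaves was treated with added 0.25% v/v non-ionic surfactant and bottom-watered only. Injury was assessed on day 14, where 100 means total kill.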"}, "[15]": {"system": "sicklepod (Cassia obtusifolia, CASOB)", "test": "Post-emerge test, greenhouse herbicide activity screening", "details": "rating scale 0-100 (0 no damage, 100 complete death), 14 days after application", "procedure,_shortened": "as §3"}, "[16]": {"system": "ivyleaf morningglory (Ipomoea hederacea, IPOHE)", "test": "Post-emerge test, greenhouse herbicide activity screening", "details": "rating scale 0-100 (0 no damage, 100 complete death), 14 days after application", "procedure,_shortened": "as §3"}, "[17]": {"system": "johnsongrass (Sorghum halepense, SORHA)", "test": "Post-emerge test, greenhouse herbicide activity screening", "details": "rating scale 0-100 (0 no damage, 100 complete death), 14 days after application", "procedure,_shortened": "as §3"}, "[18]": {"system": "large crabgrass (Digitaria sanguinalis, DIGSA)", "test": "Post-emerge test, greenhouse herbicide activity screening", "details": "rating scale 0-100 (0 no damage, 100 complete death), 14 days after application", "procedure,_shortened": "as §3"}, "[19]": {"system": "lambsquarters (Chenopodium album, CHEAL)", "test": "Post-emerge test, greenhouse herbicide activity screening", "details": "rating scale 0-100 (0 no damage, 100 complete death), 14 days after application", "procedure,_shortened": "as §3"}, "[20]": {"system": "green foxtail (Setaria viridis, SETVI)", "test": "Post-emerge test, greenhouse herbicide activity screening", "details": "rating scale 0-100 (0 no damage, 100 complete death), 14 days after application", "procedure,_shortened": "as §3"}, "[21]": {"system": "redroot pigweed (Amaranthus retroflexus, AMARE)", "test": "Post-emerge test, greenhouse herbicide activity screening", "details": "rating scale 0-100 (0 no damage, 100 complete death), 14 days after application", "procedure,_shortened": "as §3"}, "[22]": {"system": "velvetleaf (Abutilon theophrasti, ABUTH)", "test": "Post-emerge test, greenhouse herbicide activity screening", "details": "rating scale 0-100 (0 no damage, 100 complete death), 14 days after application", "procedure,_shortened": "as §3"}}}
{"smiles": "COc1c(Cl)cc(F)c(-n2c(=O)cc(C(F)(F)F)n(C)c2=O)c1CC(Cl)C(=O)OCC(Br)CBr", "note": "(single isomer, unassigned) [14-30]", "values": [{"measurement": "Pre-emerge phytotoxicity rating, crop damage RICE", "setting": "[1]; 63 g ai/ha", "value": 0}, {"measurement": "Pre-emerge phytotoxicity rating, crop damage RICE", "setting": "[1]; 250 g ai/ha", "value": 0}, {"measurement": "Pre-emerge phytotoxicity rating, crop damage CORN", "setting": "[2]; 63 g ai/ha", "value": 0}, {"measurement": "Pre-emerge phytotoxicity rating, crop damage CORN", "setting": "[2]; 250 g ai/ha", "value": 0}, {"measurement": "Post-emerge phytotoxicity rating RICE (crop damage)", "setting": "[3]; Rate 63 g ai/ha", "value": 0}, {"measurement": "Post-emerge phytotoxicity rating RICE (crop damage)", "setting": "[3]; Rate 250 g ai/ha", "value": 0}, {"measurement": "Post-emerge phytotoxicity rating CORN (crop damage)", "setting": "[4]; Rate 63 g ai/ha", "value": 10}, {"measurement": "Post-emerge phytotoxicity rating CORN (crop damage)", "setting": "[4]; Rate 250 g ai/ha", "value": 20}, {"measurement": "Pre-emerge herbicidal activity, phytotoxicity rating ECHCG", "setting": "[5]; 63 g ai/ha", "value": 0}, {"measurement": "Pre-emerge herbicidal activity, phytotoxicity rating ECHCG", "setting": "[5]; 250 g ai/ha", "value": 0}, {"measurement": "Pre-emerge herbicidal activity, phytotoxicity rating CASOB", "setting": "[6]; 63 g ai/ha", "value": 0}, {"measurement": "Pre-emerge herbicidal activity, phytotoxicity rating CASOB", "setting": "[6]; 250 g ai/ha", "value": 0}, {"measurement": "Pre-emerge herbicidal activity, phytotoxicity rating IPOHE", "setting": "[7]; 63 g ai/ha", "value": 0}, {"measurement": "Pre-emerge herbicidal activity, phytotoxicity rating IPOHE", "setting": "[7]; 250 g ai/ha", "value": 0}, {"measurement": "Pre-emerge herbicidal activity, phytotoxicity rating SORHA", "setting": "[8]; 63 g ai/ha", "value": 0}, {"measurement": "Pre-emerge herbicidal activity, phytotoxicity rating SORHA", "setting": "[8]; 250 g ai/ha", "value": 0}, {"measurement": "Pre-emerge herbicidal activity, phytotoxicity rating DIGSA", "setting": "[9]; 63 g ai/ha", "value": 0}, {"measurement": "Pre-emerge herbicidal activity, phytotoxicity rating DIGSA", "setting": "[9]; 250 g ai/ha", "value": 90}, {"measurement": "Pre-emerge herbicidal activity, phytotoxicity rating CHEAL", "setting": "[10]; 63 g ai/ha", "value": 0}, {"measurement": "Pre-emerge herbicidal activity, phytotoxicity rating CHEAL", "setting": "[10]; 250 g ai/ha", "value": 80}, {"measurement": "Pre-emerge herbicidal activity, phytotoxicity rating SETVI", "setting": "[11]; 63 g ai/ha", "value": 0}, {"measurement": "Pre-emerge herbicidal activity, phytotoxicity rating SETVI", "setting": "[11]; 250 g ai/ha", "value": 0}, {"measurement": "Pre-emerge herbicidal activity, phytotoxicity rating ABUTH", "setting": "[12]; 63 g ai/ha", "value": 0}, {"measurement": "Pre-emerge herbicidal activity, phytotoxicity rating ABUTH", "setting": "[12]; 250 g ai/ha", "value": 50}, {"measurement": "Pre-emerge herbicidal activity, phytotoxicity rating AMARE", "setting": "[13]; 63 g ai/ha", "value": 70}, {"measurement": "Pre-emerge herbicidal activity, phytotoxicity rating AMARE", "setting": "[13]; 250 g ai/ha", "value": 100}, {"measurement": "Post-emerge Herbicidal Activity, phytotoxicity rating ECHCG", "setting": "[14]; Rate 63 g ai/ha", "value": 100}, {"measurement": "Post-emerge Herbicidal Activity, phytotoxicity rating ECHCG", "setting": "[14]; Rate 250 g ai/ha", "value": 100}, {"measurement": "Post-emerge Herbicidal Activity, phytotoxicity rating CASOB", "setting": "[15]; Rate 63 g ai/ha", "value": 20}, {"measurement": "Post-emerge Herbicidal Activity, phytotoxicity rating CASOB", "setting": "[15]; Rate 250 g ai/ha", "value": 60}, {"measurement": "Post-emerge Herbicidal Activity, phytotoxicity rating IPOHE", "setting": "[16]; Rate 63 g ai/ha", "value": 0}, {"measurement": "Post-emerge Herbicidal Activity, phytotoxicity rating IPOHE", "setting": "[16]; Rate 250 g ai/ha", "value": 50}, {"measurement": "Post-emerge Herbicidal Activity, phytotoxicity rating SORHA", "setting": "[17]; Rate 63 g ai/ha", "value": 0}, {"measurement": "Post-emerge Herbicidal Activity, phytotoxicity rating SORHA", "setting": "[17]; Rate 250 g ai/ha", "value": 50}, {"measurement": "Post-emerge Herbicidal Activity, phytotoxicity rating DIGSA", "setting": "[18]; Rate 63 g ai/ha", "value": 60}, {"measurement": "Post-emerge Herbicidal Activity, phytotoxicity rating DIGSA", "setting": "[18]; Rate 250 g ai/ha", "value": 100}, {"measurement": "Post-emerge Herbicidal Activity, phytotoxicity rating CHEAL", "setting": "[19]; Rate 63 g ai/ha", "value": 50}, {"measurement": "Post-emerge Herbicidal Activity, phytotoxicity rating CHEAL", "setting": "[19]; Rate 250 g ai/ha", "value": 100}, {"measurement": "Post-emerge Herbicidal Activity, phytotoxicity rating SETVI", "setting": "[20]; Rate 63 g ai/ha", "value": 0}, {"measurement": "Post-emerge Herbicidal Activity, phytotoxicity rating SETVI", "setting": "[20]; Rate 250 g ai/ha", "value": 30}, {"measurement": "Post-emerge Herbicidal Activity, phytotoxicity rating AMARE", "setting": "[21]; Rate 63 g ai/ha", "value": 70}, {"measurement": "Post-emerge Herbicidal Activity, phytotoxicity rating AMARE", "setting": "[21]; Rate 250 g ai/ha", "value": 100}, {"measurement": "Post-emerge Herbicidal Activity, phytotoxicity rating ABUTH", "setting": "[22]; Rate 63 g ai/ha", "value": 60}, {"measurement": "Post-emerge Herbicidal Activity, phytotoxicity rating ABUTH", "setting": "[22]; Rate 250 g ai/ha", "value": 100}]}
